The numbers were not newly measured in patent US7482336B2, “Aminocyclohexanes as dipeptidyl peptidase-IV inhibitors for the treatment or prevention of diabetes” (Merck & Co., Inc., priority 2004, dated 2009), which cites them from elsewhere.

The conditions of data set [1]: rats; Transplantation 63: 1495-1500 (1997).
The target in the next data set is T1, DPP-IV (Homo sapiens, UniProt P27487).
T1 construct: GRF is rapidly degraded in plasma to GRF[3-44]

For data set [2] the following is noted: mouse, cyclophosphamide-induced neutropenia; WO 99/56753.

T1 sequence (P27487 whole entry, species assumed): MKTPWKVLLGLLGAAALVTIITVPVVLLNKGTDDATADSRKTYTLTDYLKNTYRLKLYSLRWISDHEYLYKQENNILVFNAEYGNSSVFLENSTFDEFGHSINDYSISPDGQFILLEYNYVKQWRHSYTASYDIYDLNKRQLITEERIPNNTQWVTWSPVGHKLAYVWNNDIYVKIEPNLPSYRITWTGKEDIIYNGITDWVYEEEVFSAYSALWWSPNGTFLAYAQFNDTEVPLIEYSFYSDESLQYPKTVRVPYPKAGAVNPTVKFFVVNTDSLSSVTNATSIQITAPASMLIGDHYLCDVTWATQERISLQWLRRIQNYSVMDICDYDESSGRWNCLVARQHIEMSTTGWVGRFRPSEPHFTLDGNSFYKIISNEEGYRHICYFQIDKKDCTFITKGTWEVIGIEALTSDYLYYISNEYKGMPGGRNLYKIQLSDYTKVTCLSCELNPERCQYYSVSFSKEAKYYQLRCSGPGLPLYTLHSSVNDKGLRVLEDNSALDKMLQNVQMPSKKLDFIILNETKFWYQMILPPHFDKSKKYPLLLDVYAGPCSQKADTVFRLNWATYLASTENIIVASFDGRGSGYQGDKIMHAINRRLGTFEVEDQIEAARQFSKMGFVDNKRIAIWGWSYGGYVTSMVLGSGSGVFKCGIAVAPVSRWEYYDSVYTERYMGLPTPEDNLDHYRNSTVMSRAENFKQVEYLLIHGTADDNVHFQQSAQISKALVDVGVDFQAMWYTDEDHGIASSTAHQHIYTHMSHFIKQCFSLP

In the case of `CC(C)N1CCC(c2ccccc2)(c2ccccc2)CC1` [Prodipine, Pro-Pro-diphenyl-phosphonate], the cardiac allograft survival result in data set [1] is reported as “double cardiac allograft survival in rats from day 7 to day 14”. In the case of diprotin A, on DPP-IV, the “degradation of GRF in plasma to GRF[3-44]” value is on record as “prevented”. As for `CC(C)[C@H](N)C(=O)N1CCC[C@H]1B(O)O` [Val-Boro-Pro], the hematopoiesis entry in data set [2] is “stimulated hematopoiesis”.
